Experimental data from US20130131059A1, “METHOD FOR TREATING OPHTHALMIC DISEASES USING KINASE INHIBITOR COMPOUNDS IN PRODRUG FORMS” (INSPIRE PHARMACEUTICALS, INC., priority 2010, published 2013).
Where two headings read alike, the source gives them in different places.

Key:
[1] = target: T1, ROCK1 (Homo sapiens, UniProt Q13464); experiment: Rho kinase inhibition assay (IMAP fluorescence polarization), ROCK1; format: biochemical; settings: 10 μM ATP, 60 min at room temperature; read-out: ROCK1 IC50
T1 construct: purchased Upstate/Chemicon 14-601
T1 sequence (Q13464 whole entry): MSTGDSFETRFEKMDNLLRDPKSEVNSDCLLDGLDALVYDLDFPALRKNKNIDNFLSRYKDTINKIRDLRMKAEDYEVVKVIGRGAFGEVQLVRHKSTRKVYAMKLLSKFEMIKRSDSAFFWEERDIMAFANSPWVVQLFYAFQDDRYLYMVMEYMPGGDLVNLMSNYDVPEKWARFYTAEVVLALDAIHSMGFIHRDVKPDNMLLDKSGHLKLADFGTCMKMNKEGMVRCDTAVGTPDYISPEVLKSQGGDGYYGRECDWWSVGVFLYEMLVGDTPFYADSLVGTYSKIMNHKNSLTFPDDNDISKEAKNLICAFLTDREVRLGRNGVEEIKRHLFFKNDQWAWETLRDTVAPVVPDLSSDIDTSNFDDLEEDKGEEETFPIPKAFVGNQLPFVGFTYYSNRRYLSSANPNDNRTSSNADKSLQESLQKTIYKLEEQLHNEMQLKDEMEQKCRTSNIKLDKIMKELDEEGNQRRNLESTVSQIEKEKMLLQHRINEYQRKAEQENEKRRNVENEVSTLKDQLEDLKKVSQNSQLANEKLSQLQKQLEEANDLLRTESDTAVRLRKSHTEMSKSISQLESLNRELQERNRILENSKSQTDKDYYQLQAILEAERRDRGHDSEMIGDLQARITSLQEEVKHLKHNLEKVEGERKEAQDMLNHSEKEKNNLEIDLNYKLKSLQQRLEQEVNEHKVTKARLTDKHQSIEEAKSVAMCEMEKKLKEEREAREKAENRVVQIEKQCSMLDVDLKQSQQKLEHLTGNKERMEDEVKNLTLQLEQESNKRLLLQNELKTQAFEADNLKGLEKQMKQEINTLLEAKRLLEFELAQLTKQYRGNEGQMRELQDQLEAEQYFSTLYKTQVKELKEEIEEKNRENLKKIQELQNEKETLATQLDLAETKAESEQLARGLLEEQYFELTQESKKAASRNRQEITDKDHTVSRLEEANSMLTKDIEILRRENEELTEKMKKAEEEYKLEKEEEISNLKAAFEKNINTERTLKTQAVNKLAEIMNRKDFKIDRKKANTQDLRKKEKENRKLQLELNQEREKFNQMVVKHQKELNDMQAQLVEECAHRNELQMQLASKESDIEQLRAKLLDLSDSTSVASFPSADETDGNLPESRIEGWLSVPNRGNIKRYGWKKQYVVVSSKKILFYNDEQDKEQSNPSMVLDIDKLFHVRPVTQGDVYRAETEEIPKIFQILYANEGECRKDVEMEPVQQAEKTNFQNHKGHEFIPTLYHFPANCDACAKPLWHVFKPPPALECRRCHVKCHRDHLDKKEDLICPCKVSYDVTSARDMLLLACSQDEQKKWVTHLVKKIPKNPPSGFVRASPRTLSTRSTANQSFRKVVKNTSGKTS
Procedure: (§1) Following the pre-incubation, 10 μM ATP was added to initiate the reaction. After 60 minutes at room temperature, Molecular Devices IMAP™ binding solution was added to bind phosphorylated substrate. After 30 minutes of incubation in the presence of the IMAP™ beads, the fluorescence polarization was read and the ratio was reported as mP.

[2] = target: T2, ROCK2 (Homo sapiens, UniProt O75116); experiment: Rho kinase inhibition assay (IMAP fluorescence polarization), ROCK2; format: biochemical; settings: 10 μM ATP, 60 min at room temperature
T2 construct: purchased Upstate/Chemicon 14-451
T2 sequence (O75116 whole entry): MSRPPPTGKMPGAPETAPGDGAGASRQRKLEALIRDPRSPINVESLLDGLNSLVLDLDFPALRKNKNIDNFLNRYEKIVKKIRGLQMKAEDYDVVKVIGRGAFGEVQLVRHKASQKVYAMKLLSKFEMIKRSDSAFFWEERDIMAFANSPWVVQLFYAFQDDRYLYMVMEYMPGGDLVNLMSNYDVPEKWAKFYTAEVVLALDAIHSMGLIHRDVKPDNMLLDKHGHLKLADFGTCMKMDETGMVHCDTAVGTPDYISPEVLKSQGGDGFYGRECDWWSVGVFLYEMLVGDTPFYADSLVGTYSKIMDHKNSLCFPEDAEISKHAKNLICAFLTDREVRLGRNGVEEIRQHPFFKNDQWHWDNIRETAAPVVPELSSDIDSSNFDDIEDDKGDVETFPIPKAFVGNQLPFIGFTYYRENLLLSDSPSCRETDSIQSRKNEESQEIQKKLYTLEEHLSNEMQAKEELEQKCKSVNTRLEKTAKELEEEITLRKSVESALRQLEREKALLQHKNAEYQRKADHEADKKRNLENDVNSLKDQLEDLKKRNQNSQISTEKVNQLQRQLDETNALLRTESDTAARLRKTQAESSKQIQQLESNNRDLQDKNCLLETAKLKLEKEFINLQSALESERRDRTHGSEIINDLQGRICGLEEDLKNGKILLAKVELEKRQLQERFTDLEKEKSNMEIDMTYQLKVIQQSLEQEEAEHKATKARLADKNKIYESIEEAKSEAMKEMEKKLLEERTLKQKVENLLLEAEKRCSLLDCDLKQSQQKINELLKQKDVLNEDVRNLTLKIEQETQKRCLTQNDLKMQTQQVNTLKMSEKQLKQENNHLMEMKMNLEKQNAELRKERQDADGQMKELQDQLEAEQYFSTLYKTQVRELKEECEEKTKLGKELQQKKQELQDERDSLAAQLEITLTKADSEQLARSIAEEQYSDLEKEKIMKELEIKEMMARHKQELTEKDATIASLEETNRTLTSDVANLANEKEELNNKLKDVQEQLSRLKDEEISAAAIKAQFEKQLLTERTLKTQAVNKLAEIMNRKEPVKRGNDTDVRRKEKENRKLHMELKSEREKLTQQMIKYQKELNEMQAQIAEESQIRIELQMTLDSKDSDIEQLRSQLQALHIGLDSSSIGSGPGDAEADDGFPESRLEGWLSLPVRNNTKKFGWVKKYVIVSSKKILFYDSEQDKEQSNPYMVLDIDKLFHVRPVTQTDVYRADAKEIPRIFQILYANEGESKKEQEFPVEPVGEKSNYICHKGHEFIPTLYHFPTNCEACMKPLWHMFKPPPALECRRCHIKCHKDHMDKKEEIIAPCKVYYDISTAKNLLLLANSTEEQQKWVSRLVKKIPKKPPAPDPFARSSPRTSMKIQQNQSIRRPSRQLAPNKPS
Procedure: as §1, with “(Molecular Devices product number R7184) was pre-incubated with a test compound for 5 minutes in buffer containing 10 mM Tris-HCl pH 7.2, 10 mM MgCl2, and 0.1% BSA. Following” for “Following”
See Tian et al., Arch. Ophthalmol. […] Ophthalmol. Vis. […] Ophthalmol. […] Cytoskel. […] Ophthalmol. Vis. […] Ophthalmol. Vis.

[3] = Ocular comfort, composite behaviour score after ocular instillation; format: in vivo, rabbit; settings: 4 mM, two drops to right eye, evaluated for 15 minutes; FIGS. 1 and 2
Procedure: The desired compound at a concentration of 4 mM in a formulation of 10 mM phosphate, 1% polysorbate 80, 0.85% NaCl, 0.02% BAC, 0.2% EDTA pH 7.0 was administered as two 30 µl drops to the right eye of each rabbit within a dosing group. The rabbits were evaluated for 15 minutes after ocular instillation and their changes in behavior were recorded. […] The higher the score, the more discomfort an animal senses. A mean ±SE was generated for each group and depicted in FIGS. 1 and 2.

[4] = Ocular surface and aqueous humor bioavailability; format: in vivo, New Zealand White rabbits; settings: New Zealand White, rabbit, topical, 30 μl of 1 mM (0.04% w/v) per eye, Compound 14 dosed 1 mM, 1 × 30 uL, 4 eyes
Procedure: Dose Formulation and Administration. Compounds 14 (prodrug) and 49 (base compound) were formulated at 0.04% w/v (the equivalent millimolar concentration is 1 mM) in 10 mM phosphate, 0.8% polysorbate 80, 0.85% NaCl, 0.01% BAC, 0.1% EDTA at pH 7.3. Each compound was administered as a 30 μl drop to both eyes of each animal within a dosing group and the ocular and systemic exposure was examined as described in Example 49.
Study sampling. 40 μL of saline was applied to the eyes at 0.083, 1, 2, and 4 hours after administration of each compound and the lavage fluids were collected as samples. Aqueous humor and ocular surface samples were obtained from 2 animals (4 eyes) per dosing group at 0.083, 1, 2, and 4 hours post dosing, by the methods described in Example 49. Ocular surface relates to the surface of the cornea and conjunctiva. Ocular surface residence time is the average time that a compound resides on the ocular surface.

[5] = Ocular surface and aqueous humor bioavailability; format: in vivo, New Zealand White rabbits; settings: New Zealand White, rabbit, topical, 30 μl of 1 mM (0.04% w/v) per eye, Compound 14 dosed 1 mM, 1 × 30 uL, 4 eyes, time 0.83 h
[6] = aqueous humor, read-out: Aqueous Humor concentration of [14], Mean
[7] = ocular surface (saline lavage fluid), read-out: Ocular Surface concentration of [14], Mean

Cc1ccc(CN2CC[C@@H](Nc3cccc4cnccc34)C2)cc1OCCOC(=O)c1ccccc1 [Compound 14, 2-(5-(((R)-3-isoquinolin-5-ylamino)pyrrolidin-1-yl)methyl)-2-methylphenoxy)ethyl benzoate]
IC50 [1]: 2460 nM
IC50 [2]: 717 nM
Ocular discomfort (composite score) versus parent compound [3]: reduced level of discomfort compared to the parent compound
concentration at 1 h [4, 6]: 0 µM
concentration at 2 h [4, 6]: 0 µM
concentration at 4 h [4, 6]: 0 nM
concentration at 1 h [4, 7]: 3.08 µM
concentration at 2 h [4, 7]: 0.245 µM
concentration at 4 h [4, 7]: 0 nM
concentration at […] [5, 6]: 0 µM
concentration at […] [5, 7]: 24.3 µM
